Test [1] has as its target T1, Caspase-3 (Homo sapiens, UniProt P42574).
T1 sequence (P42574 whole entry): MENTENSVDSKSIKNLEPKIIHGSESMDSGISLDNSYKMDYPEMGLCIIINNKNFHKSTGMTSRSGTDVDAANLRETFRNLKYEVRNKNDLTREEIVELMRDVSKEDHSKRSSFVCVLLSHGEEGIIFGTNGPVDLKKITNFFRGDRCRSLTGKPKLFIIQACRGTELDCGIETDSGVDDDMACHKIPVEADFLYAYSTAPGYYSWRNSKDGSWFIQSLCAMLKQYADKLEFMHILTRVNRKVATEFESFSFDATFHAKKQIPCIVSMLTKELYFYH
Description: activators of human procaspase-3 D3A mutant – biochemical, absorbance, PC-3 D3A mutant, counter-screen for dual procaspase-3/7 activator project, dose response (AID 504328).

Test [2] can be described thus: Counterscreen for IDE inhibitors: Luminescence-based cell-based high throughput dose response assay to identify compounds that are cytotoxic to HEK cells. [Related pubchem assays: 434962 (Primary screen (IDE inhibitors in singlicate)), 449730 (Counterscreen (Cytotoxicity in triplicate)), 435028 (Confirmation (IDE inhibitors in triplicate)) …. It counts as functional. Conditions: HEK293. (In general: A counterscreen serves to expose hits that act by an unwanted route or on another target.)

Test [3] deals with T2, Insulin-degrading enzyme (Homo sapiens, UniProt P14735).
T2 sequence (P14735 whole entry): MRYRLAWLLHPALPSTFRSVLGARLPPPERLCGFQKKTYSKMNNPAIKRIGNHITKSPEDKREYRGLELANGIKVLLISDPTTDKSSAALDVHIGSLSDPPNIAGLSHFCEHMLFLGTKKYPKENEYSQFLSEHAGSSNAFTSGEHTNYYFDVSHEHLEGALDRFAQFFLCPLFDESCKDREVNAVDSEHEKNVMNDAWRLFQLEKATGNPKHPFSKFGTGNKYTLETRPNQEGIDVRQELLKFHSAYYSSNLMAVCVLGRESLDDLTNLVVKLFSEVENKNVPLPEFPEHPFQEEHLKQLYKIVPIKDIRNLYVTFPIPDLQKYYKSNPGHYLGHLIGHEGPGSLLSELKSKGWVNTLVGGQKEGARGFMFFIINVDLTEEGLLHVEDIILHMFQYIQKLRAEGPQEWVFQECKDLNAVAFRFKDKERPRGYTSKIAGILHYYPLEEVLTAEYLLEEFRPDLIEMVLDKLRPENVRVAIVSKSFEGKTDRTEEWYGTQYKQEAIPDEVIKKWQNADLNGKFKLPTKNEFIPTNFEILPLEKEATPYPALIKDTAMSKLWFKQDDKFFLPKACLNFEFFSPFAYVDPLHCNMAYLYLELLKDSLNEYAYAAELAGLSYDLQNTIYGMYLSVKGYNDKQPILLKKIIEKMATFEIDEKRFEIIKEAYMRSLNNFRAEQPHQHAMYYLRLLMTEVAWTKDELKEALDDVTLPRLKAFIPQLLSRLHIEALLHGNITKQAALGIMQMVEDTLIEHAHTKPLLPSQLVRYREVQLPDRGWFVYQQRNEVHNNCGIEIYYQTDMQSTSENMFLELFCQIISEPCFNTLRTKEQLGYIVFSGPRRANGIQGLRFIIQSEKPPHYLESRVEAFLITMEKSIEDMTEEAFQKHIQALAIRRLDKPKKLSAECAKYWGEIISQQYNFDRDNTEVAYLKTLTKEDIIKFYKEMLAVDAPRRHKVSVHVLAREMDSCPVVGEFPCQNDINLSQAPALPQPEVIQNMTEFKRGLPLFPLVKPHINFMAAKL
Description: Dose Response: Fluorescence polarization-based cell-based high throughput dose response assay for inhibitors of insulin-degrading enzyme (IDE). [Related pubchem assays: 434962 (Primary screen (IDE inhibitors in singlicate)), 449730 (Counterscreen (Cytotoxicity in triplicate)), 435028 (Confirmation (IDE inhibitors in triplicate)), 434984 (Summary …. It counts as functional. On the technique in general: In fluorescence polarisation assays a small probe gives low polarisation when free and higher when bound to something large.

Test [4] addresses Caspase-7 (Homo sapiens, UniProt P55210). Description: potency of procaspase-7 enzyme activation – biochemical, absorbance, human, dual procaspase-3/-7 activator project, dose response (AID 504330).
Test [5] addresses T3, Corticotropin-releasing factor receptor 2/Corticotropin-releasing factor-binding protein (Homo sapiens, UniProt P24387+Q13324).
T3 sequence (Q13324 whole entry): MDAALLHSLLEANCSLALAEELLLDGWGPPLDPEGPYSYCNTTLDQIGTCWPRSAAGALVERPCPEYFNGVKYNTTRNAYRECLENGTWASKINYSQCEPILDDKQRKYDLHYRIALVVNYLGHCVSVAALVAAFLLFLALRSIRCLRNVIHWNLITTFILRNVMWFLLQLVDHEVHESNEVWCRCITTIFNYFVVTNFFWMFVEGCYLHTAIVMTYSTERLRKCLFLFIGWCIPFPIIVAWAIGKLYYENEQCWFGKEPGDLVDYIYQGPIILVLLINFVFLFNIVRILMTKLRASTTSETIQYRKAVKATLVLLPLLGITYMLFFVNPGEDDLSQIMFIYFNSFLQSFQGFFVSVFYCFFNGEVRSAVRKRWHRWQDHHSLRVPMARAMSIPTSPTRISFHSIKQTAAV
T3 sequence (P24387 whole entry): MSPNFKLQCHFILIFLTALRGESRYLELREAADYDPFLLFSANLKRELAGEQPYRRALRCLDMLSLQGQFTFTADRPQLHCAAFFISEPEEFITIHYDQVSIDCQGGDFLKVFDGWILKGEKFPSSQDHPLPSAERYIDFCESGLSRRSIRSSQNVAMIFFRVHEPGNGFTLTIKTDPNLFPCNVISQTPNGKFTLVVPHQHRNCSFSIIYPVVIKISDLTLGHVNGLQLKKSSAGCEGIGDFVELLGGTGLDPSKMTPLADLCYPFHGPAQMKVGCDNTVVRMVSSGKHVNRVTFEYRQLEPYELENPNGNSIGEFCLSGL
Description: activators of CRF receptor 2 with binding protein – uHTS hits, confirmation (AID 602473). It counts as functional. Conditions: read-out: EC50_Mean.

In test [6] the target is Phosphoethanolamine/phosphocholine phosphatase (Homo sapiens, UniProt Q8TCT1). The test is described as follows: SAR assay for compounds that inhibit PHOSPHO1. [Related pubchem assays (depositor defined):AID1545, AID1565, AID1574].
In test [7] the target is Phosphomannomutase 2 (Homo sapiens, UniProt O15305). The test is described as follows: Counter screen SAR assay for PMM2 inhibitors via a fluorescence intensity assay. [Related pubchem assays (depositor defined):AID1545, AID1574].
Test [8] concerns the target T4, Mannose-6-phosphate isomerase (Homo sapiens, UniProt P34949).
T4 sequence (P34949 whole entry): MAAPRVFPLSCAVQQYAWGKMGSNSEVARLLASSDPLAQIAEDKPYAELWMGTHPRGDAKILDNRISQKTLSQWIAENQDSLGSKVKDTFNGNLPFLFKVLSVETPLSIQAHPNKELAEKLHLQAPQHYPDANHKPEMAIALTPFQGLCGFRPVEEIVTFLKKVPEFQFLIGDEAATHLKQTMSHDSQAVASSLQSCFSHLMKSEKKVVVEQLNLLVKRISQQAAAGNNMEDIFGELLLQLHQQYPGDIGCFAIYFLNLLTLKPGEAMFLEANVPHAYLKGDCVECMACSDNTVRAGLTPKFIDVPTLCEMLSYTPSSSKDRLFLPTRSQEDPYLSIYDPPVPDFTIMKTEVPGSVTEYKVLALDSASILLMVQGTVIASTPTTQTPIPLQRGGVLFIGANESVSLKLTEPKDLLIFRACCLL
The test is described as follows: phosphomannose isomerase inhibition – biochemical, fluorescence intensity, confirmation (AID 1535).

Calls of active or inactive are those of the source.

Phosphoethanolamine/phosphocholine phosphatase, sequence (Q8TCT1 whole entry): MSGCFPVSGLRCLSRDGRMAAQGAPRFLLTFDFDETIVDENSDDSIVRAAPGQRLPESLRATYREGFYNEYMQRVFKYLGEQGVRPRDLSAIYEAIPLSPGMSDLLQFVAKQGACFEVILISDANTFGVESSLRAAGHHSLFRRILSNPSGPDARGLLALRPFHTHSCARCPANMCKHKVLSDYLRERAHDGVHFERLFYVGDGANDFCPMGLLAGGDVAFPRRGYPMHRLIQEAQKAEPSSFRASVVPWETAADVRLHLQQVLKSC
Phosphomannomutase 2, sequence (O15305 whole entry): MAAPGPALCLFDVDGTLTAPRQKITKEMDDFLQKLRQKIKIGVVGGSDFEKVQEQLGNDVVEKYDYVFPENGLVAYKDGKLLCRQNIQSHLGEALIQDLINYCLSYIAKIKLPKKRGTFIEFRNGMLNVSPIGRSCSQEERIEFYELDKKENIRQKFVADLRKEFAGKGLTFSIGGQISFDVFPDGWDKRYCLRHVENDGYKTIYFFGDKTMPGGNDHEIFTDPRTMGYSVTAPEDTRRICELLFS

One may read the IC50 as the concentration that gives 50% inhibition. With `O=C(C1=NN(c2ccccc2)C2C(=O)N(c3ccccc3)C(=O)C12)c1ccccc1` (stereo not drawn), the EC50 is > 85.3 µM (inactive) in test [1], > 85.3 µM (inactive) in test [4] and 14.6 µM (active) in test [5]. Moreover, the IC50 is given as > 55.7 µM (not active) in test [2] and 25.5 µM (not active) in test [3].

`O=c1c2ccc(F)cc2sn1-c1cc(Cl)ccc1Cl`: the IC50 in test [6] was 0.384 µM (active); in test [7] it was 3.37 µM (active); in test [8], 44.9 µM (active).

The values are drawn from ChEMBL document CHEMBL1201862, “PubChem BioAssay data set” (2004).
